Assay [1] deals with T1, Protein RecA (Mycobacterium tuberculosis, UniProt P9WHJ3).
T1 sequence (P9WHJ3 whole entry): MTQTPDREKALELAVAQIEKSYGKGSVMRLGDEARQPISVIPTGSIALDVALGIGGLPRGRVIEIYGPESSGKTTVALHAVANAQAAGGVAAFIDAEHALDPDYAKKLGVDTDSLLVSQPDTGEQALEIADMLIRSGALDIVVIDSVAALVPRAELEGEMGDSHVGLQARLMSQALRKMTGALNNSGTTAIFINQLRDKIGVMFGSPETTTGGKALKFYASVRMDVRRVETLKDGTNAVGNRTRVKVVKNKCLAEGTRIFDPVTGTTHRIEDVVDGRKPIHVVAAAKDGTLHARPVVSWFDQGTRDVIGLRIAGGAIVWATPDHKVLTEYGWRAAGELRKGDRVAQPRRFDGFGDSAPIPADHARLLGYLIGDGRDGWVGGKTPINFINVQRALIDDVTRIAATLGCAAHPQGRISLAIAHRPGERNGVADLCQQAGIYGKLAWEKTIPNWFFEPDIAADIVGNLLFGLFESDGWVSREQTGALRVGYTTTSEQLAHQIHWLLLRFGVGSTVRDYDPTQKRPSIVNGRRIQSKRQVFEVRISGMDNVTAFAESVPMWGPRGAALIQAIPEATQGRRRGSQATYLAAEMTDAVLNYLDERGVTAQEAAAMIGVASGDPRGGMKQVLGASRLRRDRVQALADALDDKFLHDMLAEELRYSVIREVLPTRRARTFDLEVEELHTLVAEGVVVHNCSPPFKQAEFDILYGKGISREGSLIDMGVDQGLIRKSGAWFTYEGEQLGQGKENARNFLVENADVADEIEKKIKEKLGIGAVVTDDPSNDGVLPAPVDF
Description: Fluorescence Cell-Free Homogeneous Dose Retest to Identify Inhibitors of RecA-Intein Splicing Activity. [Related pubchem assays (depositor defined):AID2097, AID2223, AID489010, AID492950]. Type of assay: functional.

In assay [2] the target is T2, Replicative DNA helicase DnaB (Mycobacterium tuberculosis, UniProt P9WMR3).
T2 sequence (P9WMR3 whole entry): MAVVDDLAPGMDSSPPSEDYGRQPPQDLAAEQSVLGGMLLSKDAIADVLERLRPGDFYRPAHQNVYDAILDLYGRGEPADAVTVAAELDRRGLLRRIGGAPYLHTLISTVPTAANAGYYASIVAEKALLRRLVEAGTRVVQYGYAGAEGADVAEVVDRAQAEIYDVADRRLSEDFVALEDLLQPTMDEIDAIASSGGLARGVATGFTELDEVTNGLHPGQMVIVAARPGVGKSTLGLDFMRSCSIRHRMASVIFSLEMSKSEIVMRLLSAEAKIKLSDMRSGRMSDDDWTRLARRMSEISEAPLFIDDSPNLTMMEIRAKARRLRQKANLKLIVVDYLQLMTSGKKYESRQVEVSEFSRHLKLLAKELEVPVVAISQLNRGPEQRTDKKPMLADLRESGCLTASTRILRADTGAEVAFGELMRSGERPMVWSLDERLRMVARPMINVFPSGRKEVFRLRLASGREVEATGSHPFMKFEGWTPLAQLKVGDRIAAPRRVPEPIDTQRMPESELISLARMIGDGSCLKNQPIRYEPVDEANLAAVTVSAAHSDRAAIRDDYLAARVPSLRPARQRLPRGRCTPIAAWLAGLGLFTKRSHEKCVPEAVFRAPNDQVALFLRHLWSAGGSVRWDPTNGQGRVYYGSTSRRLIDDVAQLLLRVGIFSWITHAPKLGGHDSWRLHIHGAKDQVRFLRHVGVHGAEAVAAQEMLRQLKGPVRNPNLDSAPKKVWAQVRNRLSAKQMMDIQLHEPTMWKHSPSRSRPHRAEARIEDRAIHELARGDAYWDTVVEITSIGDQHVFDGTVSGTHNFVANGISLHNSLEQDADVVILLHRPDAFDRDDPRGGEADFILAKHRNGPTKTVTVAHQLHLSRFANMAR
The experiment in a line: DnaB intein splicing inhibitors, dose response, biochemical, cell-free fluorescence (AID 449749). In kind it is functional.

The target in assay [3] is Cytochrome P450 2C9 (Homo sapiens, UniProt P11712).
A short description of assay [4]: NIH-3T3 fibroblast cytotoxicity, dose response, cytotoxicity control, cell-based, fluorescence, Alamar Blue, secondary assay (AID 2327).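 Note: NIH-3T3 mouse fibroblasts cultured with fluconazole at 8 µg/mL.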 In kind it is functional.
Assay [5] has as its target Cytochrome P450 2D6 (Homo sapiens, UniProt P10635).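 Note: CYP2D6 member of a cytochrome P450 panel assay.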
Assay [6] addresses T3, Corticotropin-releasing factor receptor 2/Corticotropin-releasing factor-binding protein (Homo sapiens, UniProt P24387+Q13324).
T3 sequence (Q13324 whole entry): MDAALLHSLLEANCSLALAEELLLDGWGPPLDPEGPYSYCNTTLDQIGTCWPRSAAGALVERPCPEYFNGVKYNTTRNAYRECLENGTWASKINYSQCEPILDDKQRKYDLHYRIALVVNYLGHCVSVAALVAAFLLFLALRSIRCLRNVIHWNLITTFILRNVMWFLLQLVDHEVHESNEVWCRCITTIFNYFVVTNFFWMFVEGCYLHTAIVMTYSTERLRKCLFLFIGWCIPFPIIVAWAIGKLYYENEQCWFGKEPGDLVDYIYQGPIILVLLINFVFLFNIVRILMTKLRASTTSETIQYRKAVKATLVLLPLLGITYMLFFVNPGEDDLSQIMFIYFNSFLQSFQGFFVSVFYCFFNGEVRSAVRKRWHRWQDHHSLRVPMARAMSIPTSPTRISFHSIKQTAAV
T3 sequence (P24387 whole entry): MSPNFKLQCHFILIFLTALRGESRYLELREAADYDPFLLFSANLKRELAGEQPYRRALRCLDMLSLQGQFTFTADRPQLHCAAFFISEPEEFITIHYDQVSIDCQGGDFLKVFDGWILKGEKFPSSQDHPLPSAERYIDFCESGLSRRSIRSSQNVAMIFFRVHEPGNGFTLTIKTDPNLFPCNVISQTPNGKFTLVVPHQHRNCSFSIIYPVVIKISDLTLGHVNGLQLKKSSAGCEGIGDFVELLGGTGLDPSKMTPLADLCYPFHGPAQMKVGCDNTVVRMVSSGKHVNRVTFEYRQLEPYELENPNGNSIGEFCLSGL
The experiment in a line: activators of CRF receptor 2 with binding protein – uHTS hits, confirmation (AID 602473). In kind it is functional. Particulars: read-out: EC50_Mean.

In assay [7] the target is Cytochrome P450 3A4 (Homo sapiens, UniProt P08684).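 Note: CYP3A4 tested as one member of a cytochrome P450 panel screen.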
The target of assay [8] is T4, Cytochrome P450 1A2 (Homo sapiens, UniProt P05177).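 Note: PubChem cytochrome P450 panel assay, CYP1A2 panel member.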
T4 sequence (P05177 whole entry): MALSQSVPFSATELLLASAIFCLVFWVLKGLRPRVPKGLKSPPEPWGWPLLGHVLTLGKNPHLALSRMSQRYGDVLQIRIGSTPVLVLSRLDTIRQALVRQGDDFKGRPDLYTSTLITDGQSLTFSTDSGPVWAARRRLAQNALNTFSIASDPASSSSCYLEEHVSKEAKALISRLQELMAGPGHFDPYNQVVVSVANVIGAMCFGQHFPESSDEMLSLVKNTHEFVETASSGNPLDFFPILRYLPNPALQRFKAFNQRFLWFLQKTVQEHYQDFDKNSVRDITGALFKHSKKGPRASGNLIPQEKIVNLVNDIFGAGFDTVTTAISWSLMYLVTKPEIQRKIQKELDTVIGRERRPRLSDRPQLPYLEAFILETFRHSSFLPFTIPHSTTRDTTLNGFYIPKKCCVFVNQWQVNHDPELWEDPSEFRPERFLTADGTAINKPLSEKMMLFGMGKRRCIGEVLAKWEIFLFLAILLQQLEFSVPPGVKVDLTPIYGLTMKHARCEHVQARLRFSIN

Assay [9] relates to Streptococcus. Description: GAS UMAA2166 growth inhibition – luminescence, BacTiterGlo, counter-screen for streptokinase expression inhibitor project, dose response (AID 1915).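 Note: potency for reduction of bacterial viability or growth.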 In kind it is functional, organism-based.
Assay [10] relates to Streptococcus sp. 'group A'. The experiment in a line: Streptococcus pyogenes SK(-)GAS viability under kanamycin – luminescence, BacTiterGlo, confirmation, counter-screen for streptokinase expression inhibitor project, dose response (AID 1900). Type of assay: functional, organism-based.
Assay [11] has as its target Cytochrome P450 2C19 (Homo sapiens, UniProt P33261). Description: Cytochrome panel assay with activity outcomes. Panel member name: p450-cyp2c19 Compounds with AC50 equal or less than 10 uM are considered active. In kind it is functional. To be noted: read-out: AC50.
A short description of assay [12]: Luminescence Cell-Based Dose Response HTS to Identify Activators of Luciferase Translation or Activity in H4 […] Cells. [Related pubchem assays: 1829 (Project Summary), 1814 (Primary HTS)]. In kind it is functional.
Assay [13] has as its system H4. Description: Luminescence Cell-Based Dose Response HTS to Identify Activators of 5'UTR Stem-Loop Driven Prion Protein mRNA Translation in H4 Neuroglioblastoma Cells. [Related pubchem assays: 1829 (Project Summary), 1814 (Primary HTS)]. Type of assay: functional. To be noted: Homo sapiens.

Active and inactive are the calls of the source.

Chain of Cytochrome P450 2C9 (P11712 whole entry): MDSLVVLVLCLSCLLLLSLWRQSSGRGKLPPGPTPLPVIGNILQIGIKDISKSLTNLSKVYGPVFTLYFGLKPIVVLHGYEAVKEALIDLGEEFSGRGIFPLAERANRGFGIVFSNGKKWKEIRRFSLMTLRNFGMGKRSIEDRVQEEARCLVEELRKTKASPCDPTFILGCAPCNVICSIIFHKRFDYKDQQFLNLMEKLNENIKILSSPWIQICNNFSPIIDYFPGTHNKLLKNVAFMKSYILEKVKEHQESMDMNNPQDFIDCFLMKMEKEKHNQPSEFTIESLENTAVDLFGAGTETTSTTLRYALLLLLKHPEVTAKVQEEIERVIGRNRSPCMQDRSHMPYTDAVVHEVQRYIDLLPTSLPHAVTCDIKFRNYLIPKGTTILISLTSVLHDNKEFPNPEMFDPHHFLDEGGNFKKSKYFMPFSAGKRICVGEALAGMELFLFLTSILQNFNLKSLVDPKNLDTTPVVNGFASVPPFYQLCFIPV
Chain of Cytochrome P450 3A4 (P08684 whole entry): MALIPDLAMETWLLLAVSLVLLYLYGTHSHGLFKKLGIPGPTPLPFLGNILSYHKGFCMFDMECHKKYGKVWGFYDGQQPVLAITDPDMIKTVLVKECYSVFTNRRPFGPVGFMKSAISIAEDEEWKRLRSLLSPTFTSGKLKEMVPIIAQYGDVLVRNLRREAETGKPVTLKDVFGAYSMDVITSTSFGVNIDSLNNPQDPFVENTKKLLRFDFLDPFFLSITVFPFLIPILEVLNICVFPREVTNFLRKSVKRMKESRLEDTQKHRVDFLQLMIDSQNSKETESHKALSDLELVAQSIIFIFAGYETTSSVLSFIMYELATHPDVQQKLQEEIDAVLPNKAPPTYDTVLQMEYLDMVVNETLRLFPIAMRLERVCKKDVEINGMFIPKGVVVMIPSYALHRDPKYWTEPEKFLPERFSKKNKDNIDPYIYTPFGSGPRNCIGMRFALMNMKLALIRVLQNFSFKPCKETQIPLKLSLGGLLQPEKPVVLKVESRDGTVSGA
Chain of Cytochrome P450 2D6 (P10635 whole entry): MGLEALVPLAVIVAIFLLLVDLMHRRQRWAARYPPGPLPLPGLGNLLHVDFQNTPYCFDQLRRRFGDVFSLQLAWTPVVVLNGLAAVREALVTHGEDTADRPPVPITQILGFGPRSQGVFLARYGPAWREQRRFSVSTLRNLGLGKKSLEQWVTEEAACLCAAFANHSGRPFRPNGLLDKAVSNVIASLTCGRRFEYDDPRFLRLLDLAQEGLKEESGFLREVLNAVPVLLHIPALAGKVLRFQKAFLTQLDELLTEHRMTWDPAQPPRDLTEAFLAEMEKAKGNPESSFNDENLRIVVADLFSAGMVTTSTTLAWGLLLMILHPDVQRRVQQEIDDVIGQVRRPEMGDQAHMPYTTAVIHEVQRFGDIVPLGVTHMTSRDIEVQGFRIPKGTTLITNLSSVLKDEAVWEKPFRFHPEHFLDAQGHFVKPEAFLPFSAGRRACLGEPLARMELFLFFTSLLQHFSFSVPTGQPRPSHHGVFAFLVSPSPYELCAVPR
Chain of Cytochrome P450 2C19 (P33261 whole entry): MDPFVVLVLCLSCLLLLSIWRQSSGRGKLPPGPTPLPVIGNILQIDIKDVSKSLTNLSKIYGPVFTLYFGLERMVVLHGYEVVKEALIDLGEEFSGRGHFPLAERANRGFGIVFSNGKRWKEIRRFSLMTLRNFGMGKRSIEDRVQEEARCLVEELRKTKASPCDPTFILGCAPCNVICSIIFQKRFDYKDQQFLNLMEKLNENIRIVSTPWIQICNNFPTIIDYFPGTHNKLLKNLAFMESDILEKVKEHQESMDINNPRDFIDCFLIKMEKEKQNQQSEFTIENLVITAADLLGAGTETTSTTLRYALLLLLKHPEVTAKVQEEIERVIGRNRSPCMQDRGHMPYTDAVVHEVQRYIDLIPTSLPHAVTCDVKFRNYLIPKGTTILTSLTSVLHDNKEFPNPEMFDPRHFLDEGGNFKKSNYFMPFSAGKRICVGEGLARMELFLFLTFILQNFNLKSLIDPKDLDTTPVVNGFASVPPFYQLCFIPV

On to `O=C1CC/[N+](=C\c2ccccc2Cl)[N-]1`, for which the EC50 in assay [1] was 4.02 µM (active). In addition, in assay [2], the half-maximal activity concentration (AC50) was 7.23 µM (active).

`C[C@@H](C(=O)Nc1ccc2ccccc2c1)[C@@H]1C[C@@]1(C)[C@@H](NC(=O)Oc1ccc(F)cc1)c1ccccc1`: in [3], the AC50 is 0.251 µM (inconclusive).

Take `c1ccc(Nc2ncnc3ccc(-c4ccc5c(c4)OCO5)cc23)cc1`: the AC50 in assay [3] was 1.58 µM (inconclusive).

As for `C/C(=N\Nc1ccc(Cl)cc1)c1c(O)cc(C)oc1=O`, the EC50 in assay [4] is 29.4 µM (active).

Take `CCC(C)NC(=O)CCS(=O)(=O)c1ccc(Br)s1` (stereo not given): the AC50 in assay [3] is 12.6 µM (inconclusive); in assay [5], 28.2 µM (inconclusive).

In the case of `CC1C2=C(O)CC(C)(C)CC2=NC2=C1C(=O)CC(C)(C)C2` (stereo not given), in assay [6], the EC50 is > 53 µM (inactive).

Turning to `COC(=O)c1cc2c(ccn2-c2ccc(F)cc2)n1C(C)C`, the AC50 in [7] is 25.1 µM (inconclusive); in assay [3], 22.4 µM (inconclusive).

Regarding `CCOC(=O)CSc1nnc(Cc2ccccc2)n1-c1cccc(Cl)c1`, the figures for the AC50 in [3], in assay [5] and in [8] were 39.8 µM (inconclusive), 0.0891 µM (inconclusive) and 25.1 µM (inconclusive), respectively.

On to `CCc1ccc(OCC(=O)NC(=S)Nc2ccc(C)cc2C)c(Br)c1`, for which the AC50 in [7] was 31.6 µM (inconclusive); in [3] it was 0.631 µM (inconclusive); in [8], 4.47 µM (inconclusive).

Take `COC(=O)[C@H](Cc1ccccc1)NC(=O)N1CCN(Cc2ccccc2)CC1`: the values for the AC50 in assay [7] and in assay [3] were 14.1 µM (inconclusive) and 0.01 µM (inconclusive), respectively.

Take `O=[N+]([O-])c1ccc(/C=N/Nc2cc(Cl)nc(-c3ccccc3)n2)cc1`: the AC50 in [3] is 0.00562 µM (inconclusive).

In the case of `COc1cccc(-c2[nH]nc3c2C(c2ccsc2)C(C#N)=C(N)O3)c1` (stereo not given), the EC50 in assay [1] is 0.52 µM (active). Also, the AC50 in [2] is 2 µM (active).

`CS(=O)(=O)C1=NSC2=NC(=O)/C(=C\c3ccc(OC(=O)c4ccco4)cc3)C(=N)N21`: the EC50 in assay [1] was 16 µM (active). In addition, the AC50 in assay [2] is > 120 µM (inactive).

For the molecule `O=C(CN(c1cccc(Br)c1)S(=O)(=O)c1ccccc1)N/N=C/c1cc([N+](=O)[O-])ccc1O`, the EC50 is > 380 µM (inactive) in [1], 0.587 µM (active) in assay [9] and 0.364 µM (active) in [10]. Further, the AC50 in [2] is > 380 µM (inactive).

As for `c1ccc(N2CCC3(CCNCC3)CC2)nc1`, the results for the AC50 in [7], in assay [3] and in assay [11] were 25.1 µM (inconclusive), 31.6 µM (inconclusive) and 25.1 µM (inconclusive), respectively.

As for `CC(=O)NC1N=C(C)N(c2ccccc2)C1=O` (stereo not given), the EC50 in assay [1] was 10.7 µM (active). The AC50 in [2] was 4.66 µM (active).

As to `CN(C)C(=S)N=Nc1[nH]c2ccccc2c1O`, in [1], the EC50 was 6.07 µM (active). Further, the AC50 in assay [2] was 10.7 µM (active).

Regarding `CC(C)On1c(SC(C)C)nc2ccccc2c1=O`, the AC50 in assay [3] was 31.6 µM (inconclusive); in assay [11] it was 28.2 µM (inconclusive).

In the case of `Cc1cc(C)c2c(-n3cccc3)[nH]nc2n1`, in assay [3], the AC50 is 6.31 µM (inconclusive).

For the molecule `Cc1ccc(-n2c(C)c(C)c3c(NCCCO)ncnc32)cc1`, the EC50 in [12] is 119 µM (active); in assay [13] it was > 120 µM (not active).

For `O=C(NCCOc1nc(N2CCOCC2)nc(N2CCOCC2)n1)Nc1ccccc1`, the AC50 in [7] is 22.4 µM (inconclusive); in assay [3], 15.8 µM (inconclusive).

On to `Cc1nn2c(NCC(C)C)c3c(nc2c1-c1ccccc1)CCC3`, for which the values for the AC50 in [7] and in assay [3] were 10 µM (inconclusive) and 0.708 µM (inconclusive), respectively.

Turning to `O=C(CSc1nnc(Cc2ccccc2)o1)Nc1cccc(F)c1`, the EC50 in assay [1] was 86.1 µM (active). Moreover, the AC50 in assay [2] is 71.3 µM (active).

In the case of `COc1ccc(S(=O)(=O)N(CC(=O)N2CCCC2)Cc2ccccc2)cc1`, in [3], the AC50 is 1 µM (inconclusive).

Take `COc1cccc(NC(=O)NCCC2=CCCCC2)c1`: the results for the EC50 in [12] and in [13] were 51 µM (active) and 0.324 µM (active), respectively.

With `Cc1cccc(Nc2ccccc2C(=O)OCC(=O)NCc2ccco2)c1C`, the AC50 in assay [3] was 11.2 µM (inconclusive).

With `Cc1ccc(C)c(Nc2nc3nonc3nc2N2CCOCC2)c1`, in assay [3], the concentration at half-maximal activity (AC50) was 0.355 µM (inconclusive).
